Key:
[1] = Ex vivo permeation on animal skin after pretreatment with promoter compound (permeation index vs blank reference product); assay type: in vitro ADME; settings: for Permeation index: ratio of cumulative amount of testosterone at 24 hours after skin pretreatment with the compound relative to blank, 1 = no promoting effect
Text: FIG. 1 represents the permeation indices (PIs), also known as the “enhancement factors” for comparing in vitro the promoting effect of different products.
This is the product sold by the company Alza under the brand name Testoderm CIII®. This matrix transdermal device for scrotal application is free of promoters and, consequently, is more particularly suitable for performing in vitro protocols intended to select the best permeation promoters of this active principle.
As regards the second category of products, it is more particularly advantageous to check their permeation-promoting effect with respect to the active principle according to the invention. Ex vivo studies of permeation on animal skin are carried out using a reference product whose kinetics constitute a “blank”, and then after initial pretreatment of the skin with the promoter compound. The ratio of the cumulative amount at 24 hours of the test relative to the “blank” gives the permeation index “PI” factor or “enhancement factor”. A permeation index of close to 1 means that the test product has no promoting effect for the active principle under consideration and under the operating conditions used. A classification is then possible according to the indications of table II below.

[2] = Solubility at saturation of testosterone in solvents/excipients; assay type: physicochemical
Procedure: Studies for selecting the components of the adhesive matrix other than the actual adhesive are useful and involve solubility and in vitro permeation tests. To evaluate the solubilizing power of different components, solubility studies at saturation are performed.

## CCN(CC)C(=O)c1cccc(C)c1 [DEET, N,N-diethyl-m-toluamide]
[1]; in words
  testosterone permeation-promoting effect: lacks any testosterone-promoting effect

## CCCCCCCCCCCCN1CCCC1=O [Laurylpyrrolidone]
[1]
  Permeation index: 11.27

## C[C@]12CCC(=O)C=C1CC[C@@H]1[C@@H]2CC[C@]2(C)C(O)CC[C@@H]12 (some centres unmarked) [testosterone, 17-hydroxyandrost-4-en-3-one]
[2]; in Cyclohexane
  Solubility at saturation of testosterone: 0.06 % m/m
[2]; in Ethanol
  Solubility at saturation of testosterone: 22.12 % m/m
[2]; in Ethyl acetate
  Solubility at saturation of testosterone: 4.45 % m/m
[2]; in Isopropanol
  Solubility at saturation of testosterone: 12.80 % m/m
[2]; in Laurylpyrrolidone
  Solubility at saturation of testosterone: 15.90 % m/m
[2]; in Lysophosphatidylcholine
  Solubility at saturation of testosterone: 6.96 % m/m
[2]; in Methyl laurate
  Solubility at saturation of testosterone: 1.43 % m/m
[2]; in Polysorbate 80
  Solubility at saturation of testosterone: 2.62 % m/m
[2]; in Sorbitan laurate
  Solubility at saturation of testosterone: 4.12 % m/m
[2]; in Tetrahydrofuran
  Solubility at saturation of testosterone: 27.01 % m/m

## Lysophosphatidylchloline
[1]
  Permeation index: 9.18

## Sorbitan laurate
[1]
  Permeation index: 11.70
